From patent US5622983A, “N-substituted cycloalkyl and polycycloalkyl α-substituted Trp-Phe- and phenethylamine derivatives” (Warner-Lambert Company, priority 1995, dated 1997)
Like-named read-outs stand apart in the source and are kept apart here.

Assays:
[1] = target: T1, Central CCK Receptors (Mus musculus, UniProt P56481); assay: Binding to central CCK receptors (tritiated-pentagastrin displacement, cerebral cortical membranes)
T1 sequence (P56481 1-453): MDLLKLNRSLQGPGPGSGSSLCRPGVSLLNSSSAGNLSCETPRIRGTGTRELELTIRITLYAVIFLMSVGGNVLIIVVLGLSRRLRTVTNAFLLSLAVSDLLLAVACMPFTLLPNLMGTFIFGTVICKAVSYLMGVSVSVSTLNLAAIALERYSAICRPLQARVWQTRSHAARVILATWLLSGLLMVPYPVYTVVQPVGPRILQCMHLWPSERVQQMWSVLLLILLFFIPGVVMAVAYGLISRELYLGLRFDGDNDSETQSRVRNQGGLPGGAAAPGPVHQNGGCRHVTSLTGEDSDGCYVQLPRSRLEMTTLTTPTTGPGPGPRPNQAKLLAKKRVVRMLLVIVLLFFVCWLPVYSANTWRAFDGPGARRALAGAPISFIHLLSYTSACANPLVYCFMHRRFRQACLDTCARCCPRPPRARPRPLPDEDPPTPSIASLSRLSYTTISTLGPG

[2] = Palatable Diet Feeding assay; format: in vivo, rat; conditions: dose producing 50% of the maximum effect possible (zero food intake)
Method: In the Palatable Diet Feeding assay, adult male Hooded Lister rats weighing between 200-400 g were housed individually and trained to eat a palatable diet. This diet consisted of Nestles sweetened condensed milk, powdered rat food and rat water which when blended together set to a firm consistency. […] The intake of palatable diet was measured by weighing the food container before and after the 30-minute access period (limits of accuracy 0.1 g). Care was taken to collect and correct for any spillage of the diet. Rats had free access to pellet food and water except during the 30-minute test period.
After the training period, dose-response curves were constructed for CCK8 and several representative compounds of the present invention (n=8-10 rats per dose level).

[3] = read-out: Binding to Central CCK Receptors Ki, displacement of 2 nM tritiated-pentagastrin, mouse cerebral cortical membranes

Ki [1, 3] [nM]	Structure (SMILES)	Inhibition of Feeding on Rat Palatable Diet Assay I.P. MPE50 [2] [mg/kg]	Ki [1] [nM]
7500	CC(Cc1c[nH]c2ccccc12)(NC(=O)OC1CC2CCC1C2)C(=O)NCCc1ccccc1 (racemic) [Example 9, (±)-Exo-bicyclo[2.2.1]hept-2-yl [1-(1H-indol-3-ylmethyl)-1-methyl-2-oxo-2-[(2-phenylethyl)amino]ethyl]carbamate]	–	–
8800	CC(Cc1c[nH]c2ccccc12)(NC(=O)OC1CC2CCC1C2)C(=O)NCCc1ccccc1 (racemic) [Example 10, (±)-Endo-bicyclo[2.2.1]hept-2-yl [1-(1H-indol-3-ylmethyl)-1-methyl-2-oxo-2-[(2-phenylethyl)amino]ethyl]carbamate]	–	–
0.08	CC(Cc1c[nH]c2ccccc12)(NC(=O)OC1C2CC3CC(C2)CC1C3)C(=O)NC(CNC(=O)C=CC(=O)O)Cc1ccccc1 (stereo not drawn) [Example 19A, [R-(R*,S*)]-4-[[2-(1H-Indol-3-yl)-2-methyl-1-oxo-2-[[tricyclo[3.3.1.1^3,7]dec-2-yloxylcarbonyl]amino]propyl]-amino]-3-phenylpropyl]amino]-4-oxo-2-butenoic acid]	–	–
760	CC(Cc1c[nH]c2ccccc12)(NC(=O)OC1CC2CCC1(C)C2(C)C)C(=O)NCCc1ccccc1 (racemic) [Example 7, (±)-Endo-1,7,7-trimethylbicyclo[2.2.1]hept-2-yl-[1-(1H-indol-3-ylmethyl)-1-methyl-2-oxo-2-[(2-phenylethyl)amino]ethyl]-carbamate]	–	–
6	CC(Cc1c[nH]c2ccccc12)(NC(=O)OC1C2CC3CC(C2)CC1C3)C(=O)NCC(NC(=O)CCc1nn[nH]n1)c1ccccc1 (stereo not drawn) [Example 33, Tricyclo[3.3.1.1^3,7]dec-2-yl [R,(R*,S*]-[1-(1H-indol-3-ylmethyl)-1-methyl-2-oxo-2-[[2-[[1-oxo-3-(1H -tetrazol-5-yl)propyl]amino]-2-phenylethyl]-amino]ethyl]carbamic acid ester]	–	–
10500	CC(Cc1c[nH]c2ccccc12)(NC(=O)O[C@@H]1CCCC[C@H]1Cl)C(=O)NC(CO)Cc1ccccc1 (mixture of isomers) [Example 14, (±)-trans-2-Chlorocyclohexyl-[2-[[1-(hydroxymethyl)-2-phenylethyl]amino]-1-(1H-indol-3ylmethyl)-1-methyl-2-oxoethyl]carbamate]	19.5	–
4	CC1CCCCC1OC(=O)NC(C)(Cc1c[nH]c2ccccc12)C(=O)NC(CNC(=O)C=CC(=O)O)Cc1ccccc1 (single isomer, unassigned) [Example 43, 2-Butenoic acid, 4-[[2-[[3-)1H-indol-3-yl)-2-methyl-2-[[[(2-methyl-1-cyclohexyl)oxy]carbonyl]amino]-1-oxopropyl]amino]-3-phenylpropyl]amino]-4-oxo-[IR[1α[R*(S*)], 2β]]-((-)-isomer)]	–	–
3.9	CC1CCCCC1OC(=O)NC(C)(Cc1c[nH]c2ccccc12)C(=O)NCC(NC(=O)CCC(=O)O)c1ccccc1 (single isomer, unassigned) [Example 40, Butanoic acid, 4-[[2-[[3-(1H-indol-3-yl)-2-methyl-2-[[[(2-methyl-1-cyclohexyl)oxy]carbonyl]amino]-1-oxopropyl]amino]-1-phenylethyl]amino]-4-oxo-[1R-[1α[R*(R*)]2β]]-((-)-isomer)]	–	–
0.29	CC1CCCCC1OC(=O)NC(C)(Cc1c[nH]c2ccccc12)C(=O)NCC(NC(=O)C=CC(=O)O)c1ccccc1 (single isomer, unassigned) [Example 41, 2-Butenoic acid, 4-[[2-[[3-(1H-indol-3-yl)-2-methyl-2-[[[(2-methyl-1-cyclohexyl)oxy]carbonyl]amino]-1-oxopropyl]amino]-1-phenylethyl]amino]-4-oxo-, [1R -[1α[R*(R*)], 2β]]-((-)-isomer)]	–	–
260	CC(Cc1c[nH]c2ccccc12)(NC(=O)O[C@@H]1CCCC[C@H]1Cl)C(=O)NC(CO)Cc1ccccc1 (mixture of isomers) [Example 3, (±)-Trans-2-chlorocyclohexyl [2-[[1-(hydroxymethyl)-2-phenyethyl]amino]-1-(1H-indol-3-ylmethyl)-1-methyl-2-oxoethyl]carbamate. (D-tryptophan residue; L-phenylalanine residue).]	30.7	–
2230	C[C@](Cc1c[nH]c2ccccc12)(NC(=O)CC12CC3CC(CC(C3)C1)C2)C(=O)N[C@H](CO)Cc1ccccc1 (relative stereo) [Example 5, [R-(R*,S*)]-N-[1-(hydroxymethyl)-2-phenylethyl]-α-methyl-α-[[tricyclo[3.3.1.1^3,7]dec-1-ylacetyl)-amino]-1H-indole-3-propanamide]	33.6	–
14	CC(Cc1c[nH]c2ccccc12)(NC(=O)OC1C2CC3CC(C2)CC1C3)C(=O)NC(CNC(=O)CCC(=O)O)Cc1ccccc1 (stereo not drawn) [Example 19, [R-(R*,S*)]-4-[[2-[[3-(1H-indol-3-yl)-2-methyl-1-oxo-2-[[(tricyclo[3.3.1.1^3,7]dec-2-yloxy)carbonyl]amino]propyl]amino]-3-phenylpropyl]amino]-4-oxobutanoic acid]	–	–
840	CC(Cc1c[nH]c2ccccc12)(NC(=O)OC1CC2CCC1(C)C2(C)C)C(=O)NCCc1ccccc1 (racemic) [Example 8, (±)-Exo-1,7,7-trimethylbicyclo[2.2.1]hept-2-yl-[1-(1H-indol-3-ylmethyl)-1-methyl-2-oxo-2-[(2-phenylethyl)amino]ethyl]-carbamate]	–	–
5.1	CC(Cc1c[nH]c2ccccc12)(NC(=O)OC1C2CC3CC(C2)CC1C3)C(=O)NCC(NC(=O)C1CC1C(=O)O)c1ccccc1 (racemic) [Example 32, 2-[[[2-[[3-(1H-indol-3-yl)-2-methyl-1-oxo-2-[[(tricyclo-[3.3.1.1^3,7]dec-2-yloxy)carbonyl]amino]propyl]amino]-1-phenylethyl]amino]carbonyl]cyclopropanecarboxylic acid (cyclopropane ring is trans-(±)othercentersare R)]	–	–
–	C[C@](Cc1c[nH]c2ccccc12)(NC(=O)OC1CC2CC3CC(C2)C1C3)C(=O)N[C@H](CO)Cc1ccccc1 (stereo partly drawn) [Example 11]	–	54
85	CC(Cc1c[nH]c2ccccc12)(NC(=O)OC1CC2CC3CC(C2)C1C3)C(=O)NC(COC(=O)CCC(=O)O)Cc1ccccc1 (stereo not drawn) [Example 12, 2-[3-1H-indol-3-yl)-2-methyl-2-[[[(octahydro-2,5-methano-1H-inden-7-yl)oxy]carbonyl]amino]-1-oxopropyl]-3-phenylpropyl butanedioate]	–	–

Structure (SMILES)	Ki [1, 3] [nM]	Inhibition of Feeding on Rat Palatable Diet Assay I.P. MPE50 [2] [mg/kg]	Ki [1] [nM]
CC(Cc1c[nH]c2ccccc12)(NC(=O)OC12CC3CC(CC(C3)C1)C2)C(=O)NCCc1ccccc1 (racemic) [Example 1, (±)-Tricyclo[3.3.1^3,7]dec-1-yl [1-(1H-indol-3-ylmethyl)-1-methyl-2-oxo-2-[(2-phenylethyl)amino]ethyl]carbamate]	1230	–	–
CC(Cc1c[nH]c2ccccc12)(NS(=O)(=O)CC12CCC(CC1=O)C2(C)C)C(=O)NC(CO)Cc1ccccc1 (stereo not drawn) [Example 18, α-[[[(7,7-dimethyl-2-oxobicyclo[2.2.1]-hept-1-yl)-methyl]sulfonyl]amino]-N-[1-(hydroxymethyl)-2-phenylethyl]-α-methyl-1H-indole-3-propanamide-(Trpcenter R, phenylalanylcenter S)]	21000	–	–
